According to patent US20210015098A1, “MOLECULES HAVING PESTICIDAL UTILITY, AND INTERMEDIATES, COMPOSITIONS, AND PROCESSES, RELATED THERETO” (DOW AGROSCIENCES LLC, priority 2018, published 2021):

How the values were obtained:
Format in all cases: in vivo
[1] = test system: Beet Armyworm (Spodoptera exigua, LAPHEG); assay: Bioassays on Beet Armyworm (BAW), 128-well diet tray assay; conditions: for pest or weed control at 50 µg/cm2: Beet Armyworm, Table ABC Biological Results, read-out: BAW (rating); for mortality at 50 µg/cm2: 168 h, 50 μg/cm^2 on artificial diet, second instar larvae, 25° C., five to seven days, read-out: BAW % Control (or Mortality) rating
Description: (§1) Certain molecules disclosed in this document were tested against BAW and CL using procedures described in the following examples. In the reporting of the results, the “BAW & CL Rating Table” was used (See Table Section).
Bioassays on BAW were conducted using a 128-well diet tray assay. One to five second instar BAW larvae were placed in each well (3 mL) of the diet tray that had been previously filled with 1 mL of artificial diet to which 50 μg/cm^2 of the test molecule (dissolved in 50 μL of 90:10 acetone-water mixture) had been applied (to each of eight wells) and then allowed to dry. Trays were covered with a clear self-adhesive cover, vented to allow gas exchange, and held at 25° C., 14:10 light-dark for five to seven days. Percent mortality was recorded for the larvae in each well; activity in the eight wells was then averaged. The results are indicated in the table entitled “Table ABC: Biological Results” (See Table Section).

[2] = test system: Cabbage Looper (Trichoplusia ni, TRIPNI); assay: Bioassays on Cabbage Looper (CL), 128-well diet tray assay; conditions: for pest or weed control at 50 µg/cm2: Cabbage Looper, Table ABC Biological Results, read-out: CL (rating); for mortality at 50 µg/cm2: 168 h, 50 μg/cm^2 on artificial diet, second instar larvae, 25° C., five to seven days, read-out: CL % Control (or Mortality) rating
Description: as §1
Bioassays on CL were conducted using a 128-well diet tray assay. One to five second instar CL larvae were placed in each well (3 mL) of the diet tray that had been previously filled with 1 mL of artificial diet to which 50 μg/cm^2 of the test molecule (dissolved in 50 μL of 90:10 acetone-water mixture) had been applied (to each of eight wells) and then allowed to dry. Trays were covered with a clear self-adhesive cover, vented to allow gas exchange, and held at 25° C., 14:10 light-dark for five to seven days. Percent mortality was recorded for the larvae in each well; activity in the eight wells was then averaged. The results are indicated in the table entitled “Table ABC: Biological Results” (See Table Section).

[3] = test system: Yellow Fever Mosquito (Aedes aegypti, AEDSAE); conditions: for YFM (rating): Yellow Fever Mosquito, Table ABC Biological Results; for YFM % Control (or Mortality) rating: about 1 day-old larvae, 96-well plate, room temperature, 3 days
Description: Certain molecules disclosed in this document were tested against YFM using procedures described in the following paragraph. In the reporting of the results, the “GPA & YFM Rating Table” was used (See Table Section).
Master plates containing 400 μg of a molecule dissolved in 100 μL of dimethyl sulfoxide (DMSO) (equivalent to a 4000 ppm solution) are used. A master plate of assembled molecules contains 15 μL per well. To this plate, 135 μL of a 90:10 water/acetone mixture is added to each well. A robot (Biomek® NXP Laboratory Automation Workstation) is programmed to dispense 15 μL aspirations from the master plate into an empty 96-well shallow plate (“daughter” plate). There are 6 reps (“daughter” plates) created per master. The created “daughter” plates are then immediately infested with YFM larvae.
The day before plates are to be treated, mosquito eggs are placed in Millipore water containing liver powder to begin hatching (4 g into 400 mL). After the “daughter” plates are created using the robot, they are infested with 220 μL of the liver powder/larval mosquito mixture (about 1 day-old larvae). After plates are infested with mosquito larvae, a non-evaporative lid is used to cover the plate to reduce drying. Plates are held at room temperature for 3 days prior to grading. After 3 days, each well is observed and scored based on mortality. The results are indicated in the table entitled “Table ABC: Biological Results” (See Table Section).

CSCCCC(=O)Nc1c(F)ccc(NC(=O)c2cc(NC(=O)[C@H]3[C@H](c4ccc(F)c(C(F)(F)F)c4)C3(Cl)Cl)ccc2Cl)c1F [F25, 2-Chloro-5-((1R,3R)-2,2-dichloro-3-(4-fluoro-3-(trifluoromethyl)phenyl)cyclopropane-1-carboxamido)-N-(2,4-difluoro-3-(4-(methylthio)butanamido)phenyl)benzamide]
pest or weed control at 50 µg/cm2 [1]: 50 to 100% | pest or weed control at 50 µg/cm2 [2]: 50 to 100% | YFM (rating) [3]: A (80-100)

Nc1c(F)ccc(NC(=O)c2cc(NC(=O)[C@H]3[C@H](c4cc(C(F)(F)F)cc(C(F)(F)F)c4)C3(Cl)Cl)ccc2Cl)c1F (relative stereo) [DP7, trans-N-(3-Amino-2,4-difluorophenyl)-5-(3-(3,5-bis(trifluoromethyl)phenyl)-2,2-dichlorocyclopropane-1-carboxamido)-2-chlorobenzamide]
mortality at 50 µg/cm2 [1]: 50 to 100% | mortality at 50 µg/cm2 [2]: 50 to 100% | YFM % Control (or Mortality) rating [3]: A (80-100)

O=C(C[S+]([O-])CC(F)(F)F)Nc1c(F)ccc(NC(=O)c2cc(NC(=O)[C@H]3[C@H](c4ccc(F)c(C(F)(F)F)c4)C3(Cl)Cl)ccc2Cl)c1F (stereo partly drawn) [F32, 2-Chloro-5-((1R,3R)-2,2-dichloro-3-(4-fluoro-3-(trifluoromethyl)phenyl)cyclopropane-1-carboxamido)-N-(2,4-difluoro-3-(2-((2,2,2-trifluoroethyl)sulfinyl)acetamido)phenyl)benzamide]
pest or weed control at 50 µg/cm2 [1]: 50 to 100% | pest or weed control at 50 µg/cm2 [2]: 50 to 100% | YFM (rating) [3]: A (80-100)

Nc1c(F)ccc(NC(=O)c2cc(NC(=O)[C@H]3[C@H](c4cc(Cl)c(Cl)c(Cl)c4)C3(Cl)Cl)ccc2Cl)c1F [DP2, N-(3-amino-2,4-difluorophenyl)-2-chloro-5-((1R,3R)-2,2-dichloro-3-(3,4,5-trichlorophenyl)cyclopropane-1-carboxamido)benzamide]
mortality at 50 µg/cm2 [1]: 50 to 100% | mortality at 50 µg/cm2 [2]: 50 to 100% | YFM % Control (or Mortality) rating [3]: A (80-100)

O=C(CCS(=O)(=O)C(F)(F)F)Nc1c(F)ccc(NC(=O)c2cc(NC(=O)[C@H]3[C@H](c4ccc(F)c(C(F)(F)F)c4)C3(Cl)Cl)ccc2Cl)c1F [F46, 2-Chloro-5-((1R,3R)-2,2-dichloro-3-(4-fluoro-3-(trifluoromethyl)phenyl)cyclopropane-1-carboxamido)-N-(2,4-difluoro-3-(3-((trifluoromethyl)sulfonyl)propanamido)phenyl)benzamide]
pest or weed control at 50 µg/cm2 [1]: 50 to 100% | pest or weed control at 50 µg/cm2 [2]: 50 to 100% | YFM (rating) [3]: A (80-100)

CC(C)(C)OC(=O)N(C(=O)OC(C)(C)C)c1c(F)ccc(NC(=O)c2cc(NC(=O)[C@H]3[C@H](c4cc(Cl)c(Cl)c(Cl)c4)C3(Cl)Cl)ccc2Cl)c1F [DP1, tert-butyl-N-((tert-butoxy)carbonyl)-N-(3-(2-chloro-5-((1R,3R)-2,2-dichloro-3-(3,4,5-trichlorophenyl)cyclopropane-1-carboxamido)benzamido)-2,6-difluorophenyl)carbamate]
mortality at 50 µg/cm2 [1]: 0 to 50% | mortality at 50 µg/cm2 [2]: 0% | YFM % Control (or Mortality) rating [3]: D (No activity noticed in this bioassay)

CCSCC(=O)Nc1c(F)ccc(NC(=O)c2cc(NC(=O)[C@H]3[C@H](c4ccc(F)c(C(F)(F)F)c4)C3(Cl)Cl)ccc2Cl)c1F [F19, 2-Chloro-5-((1R,3R)-2,2-dichloro-3-(4-fluoro-3-(trifluoromethyl)phenyl)cyclopropane-1-carboxamido)-N-(3-(2-(ethylthio)acetamido)-2,4-difluorophenyl)benzamide]
pest or weed control at 50 µg/cm2 [1]: 50 to 100% | pest or weed control at 50 µg/cm2 [2]: 50 to 100% | YFM (rating) [3]: A (80-100)

CCSC(C)C(=O)Nc1c(F)ccc(NC(=O)c2cc(NC(=O)[C@H]3[C@H](c4ccc(F)c(C(F)(F)F)c4)C3(Cl)Cl)ccc2Cl)c1F (stereo partly drawn) [F18, 2-Chloro-5-((1R,3R)-2,2-dichloro-3-(4-fluoro-3-(trifluoromethyl)phenyl)cyclopropane-1-carboxamido)-N-(3-(2-(ethylthio)propanamido)-2,4-difluorophenyl)benzamide]
pest or weed control at 50 µg/cm2 [1]: 50 to 100% | pest or weed control at 50 µg/cm2 [2]: 50 to 100% | YFM (rating) [3]: A (80-100)

Nc1c(F)ccc(NC(=O)c2cc(NC(=O)[C@H]3[C@H](c4ccc(Cl)c(Cl)c4)C3(Cl)Cl)ccc2Cl)c1F [DP3, N-(3-Amino-2,4-difluorophenyl)-2-chloro-5-((1R,3R)-2,2-dichloro-3-(3,4-dichlorophenyl)cyclopropane-1-carboxamido)benzamide]
mortality at 50 µg/cm2 [1]: 50 to 100% | mortality at 50 µg/cm2 [2]: 50 to 100% | YFM % Control (or Mortality) rating [3]: A (80-100)

O=C(CSCC(F)(F)F)Nc1c(F)ccc(NC(=O)c2cc(NC(=O)[C@H]3[C@H](c4ccc(F)c(C(F)(F)F)c4)C3(Cl)Cl)ccc2Cl)c1F [F15, 2-chloro-5-((R,3R)-2,2-dichloro-3-(4-fluoro-3-(trifluoromethyl)phenyl)cyclopropane-1-carboxamido)-N-(2,4-difluoro-3-(2-((2,2,2-trifluoroethyl)thio)acetamido)phenyl)benzamide]
pest or weed control at 50 µg/cm2 [1]: 50 to 100% | pest or weed control at 50 µg/cm2 [2]: 50 to 100% | YFM (rating) [3]: A (80-100)

Nc1c(F)ccc(NC(=O)c2cc(NC(=O)[C@H]3[C@H](c4ccc(F)c(Cl)c4)C3(Cl)Cl)ccc2Cl)c1F [DP4, N-(3-Amino-2,4-difluorophenyl)-2-chloro-5-((1R,3R)-2,2-dichloro-3-(3-chloro-4-fluorophenyl)cyclopropane-1-carboxamido)benzamide]
mortality at 50 µg/cm2 [1]: 50 to 100% | mortality at 50 µg/cm2 [2]: 50 to 100% | YFM % Control (or Mortality) rating [3]: A (80-100)

CCSCCC(=O)Nc1c(F)ccc(NC(=O)c2cc(NC(=O)[C@H]3[C@H](c4ccc(F)c(C(F)(F)F)c4)C3(Cl)Cl)ccc2Cl)c1F [F23, 2-Chloro-5-((1R,3R)-2,2-dichloro-3-(4-fluoro-3-(trifluoromethyl)phenyl)cyclopropane-1-carboxamido)-N-(3-(3-(ethylthio)propanamido)-2,4-difluorophenyl)benzamide]
pest or weed control at 50 µg/cm2 [1]: 50 to 100% | pest or weed control at 50 µg/cm2 [2]: 50 to 100% | YFM (rating) [3]: A (80-100)

CSCCC(=O)Nc1c(F)ccc(NC(=O)c2cc(NC(=O)[C@H]3[C@H](c4ccc(F)c(C(F)(F)F)c4)C3(Cl)Cl)ccc2Cl)c1F [F24, 2-Chloro-5-((1R,3R)-2,2-dichloro-3-(4-fluoro-3-(trifluoromethyl)phenyl)cyclopropane-1-carboxamido)-N-(2,4-difluoro-3-(3-(methylthio)propanamido)phenyl)benzamide]
pest or weed control at 50 µg/cm2 [1]: 50 to 100% | pest or weed control at 50 µg/cm2 [2]: 50 to 100% | YFM (rating) [3]: A (80-100)

Nc1c(F)ccc(NC(=O)c2cc(NC(=O)[C@H]3[C@H](c4cc(F)cc(C(F)(F)F)c4)C3(Cl)Cl)ccc2Cl)c1F [DP8, N-(3-Amino-2,4-difluorophenyl)-2-chloro-5-((1R,3R)-2,2-dichloro-3-(3-fluoro-5-(trifluoromethyl)phenyl)cyclopropane-1-carboxamido)benzamide]
mortality at 50 µg/cm2 [1]: 50 to 100% | mortality at 50 µg/cm2 [2]: 50 to 100% | YFM % Control (or Mortality) rating [3]: A (80-100)

O=C(CSCC(F)(F)F)Nc1c(F)ccc(NC(=O)c2cc(NC(=O)[C@H]3[C@H](c4ccc(Cl)c(Cl)c4)C3(Cl)Cl)ccc2Cl)c1F [F9, 2-Chloro-5-((1R,3R)-2,2-dichloro-3-(3,4-dichlorophenyl)cyclopropane-1-carboxamido)-N-(2,4-difluoro-3-(2-((2,2,2-trifluoroethyl)thio)acetamido)phenyl)benzamide]
pest or weed control at 50 µg/cm2 [1]: 50 to 100% | pest or weed control at 50 µg/cm2 [2]: 50 to 100%

O=C(CCSc1ccccc1)Nc1c(F)ccc(NC(=O)c2cc(NC(=O)[C@H]3[C@H](c4ccc(F)c(C(F)(F)F)c4)C3(Cl)Cl)ccc2Cl)c1F [F20, 2-Chloro-5-((1R,3R)-2,2-dichloro-3-(4-fluoro-3-(trifluoromethyl)phenyl)cyclopropane-1-carboxamido)-N-(2,4-difluoro-3-(3-(phenylthio)propanamido)phenyl)benzamide]
pest or weed control at 50 µg/cm2 [1]: 50 to 100% | pest or weed control at 50 µg/cm2 [2]: 50 to 100%
